These results are taken from patent publication US20240010642A1, “MODULATORS OF PROGRAMMED DEATH-LIGAND-1” (SOUTHERN RESEARCH INSTITUTE, priority 2021, published 2024).

Square brackets hold non-standard residues; d marks the D form. Peptide text beside a SMILES is read from it. * marks the point of attachment. Api = NC1(C(=O)O)CCNCC1; PhAc = O=C(Cc1ccccc1)*; Ac3c = NC1(C(=O)O)CC1; Aib = CC(C)(N)C(=O)O

Sequence of PDL-1 (Q9NZQ7 19-290): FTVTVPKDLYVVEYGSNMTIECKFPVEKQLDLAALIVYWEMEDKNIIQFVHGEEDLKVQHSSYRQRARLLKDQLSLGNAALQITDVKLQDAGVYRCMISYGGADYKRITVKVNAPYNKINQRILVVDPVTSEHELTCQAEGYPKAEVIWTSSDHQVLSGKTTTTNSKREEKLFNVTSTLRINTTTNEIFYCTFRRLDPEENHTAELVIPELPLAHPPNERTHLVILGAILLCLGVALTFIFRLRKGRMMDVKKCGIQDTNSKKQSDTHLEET

One experiment relates to PDL-1 signaling. In words: Luciferase assay (Table 1). It counts as cell-based.
In the case of `CC(C)(NC(=O)c1cc(NC(=O)Cc2ccccc2)cc(CN)c1F)C(N)=O` [compound 15], the midpoint of the response, the EC50, lay at 19.3 µM.
The same measure, in the same setting: with `CC(C)(NC(=O)c1cc(CN)cc(NC(=O)Cc2ccccc2)c1)C(N)=O` [Compound No. 1, 2-[[3-(Aminomethyl)-5-(2-phenylacetamido)phenyl]formamido]-2-methylpropanamide] the figure was 0.39 µM; with `CC(C)(NC(=O)c1cc(CN)cc(NC(=O)Cc2ccc(F)cc2)c1)C(N)=O` [Compound No. 2], 0.93 µM; with `CNC(=O)C(C)(C)NC(=O)c1cc(CN(C)C)cc(NC(=O)Cc2ccc(F)cc2)c1` [compound 18], 21 µM.
Same read-out and setting: under `CC(C)(NC(=O)c1ccc(CN)c(NC(=O)Cc2ccc(F)cc2)c1)C(N)=O` [compound 13] stands 20.4 µM.
On the same count and under the same terms, under `CC(C)(NC(=O)c1cc(NC(=O)Cc2ccc(F)cc2)ccc1CN)C(N)=O` [compound 12] stands 14.3 µM; under `NCc1cc(NC(=O)Cc2ccc(F)cc2)cc(C(=O)NC2(C(N)=O)CC2)c1` [compound 4], 15.7 µM; under `NCc1cc(NC(=O)Cc2ccccc2)cc(C(=O)NC2(C(N)=O)CCCC2)c1` [compound 7], 26.1 µM.
As to `NC(=O)C1(NC(=O)C2(NC(=O)Cc3ccccc3)CCNCC2)CC1` [compound 24] (PhAc-[Api]-[Ac3c]-NH2), the EC50 (as a rule, the concentration at which the effect is half-maximal) worked out at 7.73 µM.
`NCc1cc(NC(=O)Cc2ccc(F)cc2)cc(C(=O)NCC(N)=O)c1` [compound 9] returned an EC50 of 0.07 µM.
The same measure, in the same setting: with `CC(C)(NC(=O)c1ccc(CN)c(NC(=O)Cc2ccccc2)c1)C(N)=O` [compound 14] the figure was 1.19 µM; with `CN(C)Cc1cc(NC(=O)Cc2ccc(F)cc2)cc(C(=O)NC(C)(C)C(N)=O)c1` [compound 17], 0.21 µM; with `CNC(=O)C(C)(C)NC(=O)c1cc(CN)cc(NC(=O)Cc2ccc(F)cc2)c1` [compound 19], 20.7 µM.
Still for that read-out and setting: under `NC(=O)C1(NC(=O)C2(NC(=O)Cc3ccc(F)cc3)CCNCC2)CC1` [compound 25] stands 0.36 µM; under `CC(C)(NC(=O)C1(NC(=O)Cc2ccc(F)cc2)CCNCC1)C(N)=O` [compound 23], 9.02 µM; under `CC(C)(NC(=O)c1cc(NC(=O)Cc2ccc(F)cc2)cc(CN)c1F)C(N)=O` [compound 16], 20.6 µM.
Molecule `NCc1cc(NC(=O)Cc2ccccc2)cc(C(=O)NC2(C(N)=O)CCC2)c1` [compound 6] gave an EC50 of 27.1 µM.
On to `NCc1cc(NC(=O)Cc2ccccc2)cc(C(=O)NC2(C(N)=O)CC2)c1` [compound 3], for which the EC50 turned out to be 12.6 µM.
In the case of `NCc1cc(NC(=O)Cc2ccc(F)cc2)cc(C(=O)NC2(C(N)=O)CCC2)c1` [compound 10], the EC50 was found to be 7.06 µM.
`CC(C)(NC(=O)C1(NC(=O)Cc2ccccc2)CCNCC1)C(N)=O` [Compound No. 22, 2-methyl-2-[[4-(2-phenylacetamido)piperidin-4-yl]formamido]propanamide] (PhAc-[Api]-[Aib]-NH2) returned an EC50 of 4.22 µM.
Consider `CC(C)(NC(=O)c1cc(NC(=O)Cc2ccccc2)ccc1CN)C(N)=O` [compound 11], for which the response was half-maximal at 20 µM (EC50).

Another experiment has as its target PDL-1 (Homo sapiens (Human), UniProt Q9NZQ7). The experiment in a line: KD binding (Table 1).
Turning to `CC(C)(NC(=O)c1cc(CN)cc(NC(=O)Cc2ccccc2)c1)C(N)=O` [Compound No. 1, 2-[[3-(Aminomethyl)-5-(2-phenylacetamido)phenyl]formamido]-2-methylpropanamide], the KD result is listed as “No Binding”.
Consider `CNC(=O)C(C)(C)NC(=O)c1cc(CN(C)C)cc(NC(=O)Cc2ccc(F)cc2)c1` [compound 18], for which the KD result is listed as “No Binding”.
For `NCc1cc(NC(=O)Cc2ccccc2)cc(C(=O)NC2(C(N)=O)CCCC2)c1` [compound 7], the KD result is given as “No Binding”.
Same read-out and setting: under `CC(C)(NC(=O)c1cc(NC(=O)Cc2ccc(F)cc2)cc(CN)c1F)C(N)=O` [compound 16] stands “No Binding”.
